Results taken from PubChem BioAssay AID1224920 (Broad Institute, 2016).
Activity calls are given as the source filed them.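 How the source made its calls: active means IC50 no higher than ten times the top tested dose; inconclusive means flat fit with 30 to 70% inhibition, or poor fit; inactive means IC50 above ten times the top dose.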

Test: growth modulation of Clostridium difficile isolate – OD600, 9-point, retest, dose response (AID 1224920);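 further: plate controls were DMSO for no effect and levofloxacin control for full effect; inhibitors lower culture turbidity so OD600 falls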
Conditions: Clostridium difficile clinical isolate growth, OD600, 24 h

Compound | activity change, negative = inhibition (at 120 µM (top of the series)) | other results
CN(C)C(=O)c1cccc(-c2ccc([C@@H]3[C@H]4CN(C(=O)C5CCCCC5)CC(=O)N4[C@H]3CO)cc2)c1 | -5.65% (inactive) | 
CC(=O)N1[C@@H](CO)[C@@H](c2ccccc2)[C@@H]1CN(C)C(=O)CN1CCOCC1 | -9.07% (inactive) | 
CN1[C@@H]2c3ccc(/C=C/c4ccccc4)c(=O)n3C[C@H]1[C@H](CO)[C@H]2C(=O)NC1CCCC1 | 4.99% (inactive) | 
C/C=C/c1ccc([C@H]2[C@@H](CO)N(C(=O)CC)[C@H]2CNC(=O)CC)cc1 |  | activity change, negative = inhibition (at 135 µM (top of the series)): -4.24% (inactive)
CC(=O)N1[C@H](CO)[C@@H](c2ccccc2)[C@H]1CN(C)C(=O)CN1CCOCC1 |  | activity change, negative = inhibition (at 135 µM (top of the series)): -1.86% (inactive)
CC(=O)NC[C@@H]1[C@H](c2ccc(-c3cccc(F)c3)cc2)[C@@H](CO)N1C(C)=O | -11.6% (inactive) | 
COc1ccc(-c2ccc3c(c2)[C@H]2[C@H](CCN2C(=O)Cc2cccnc2)[C@H](CO)N3C)cc1 | 28.9% (inactive) | 
O=C(Nc1ccccc1F)N1C[C@@H]2N[C@H](C1)C2c1ccc(-c2ccccc2)cc1 (some centres undefined) | 36.7% (inactive) | 
COc1ccc(NC(=O)N2CCCCN3[C@@H](CO)[C@@H](c4ccc(-c5ccccc5C)cc4)[C@@H]3C2)cc1 |  | activity change, negative = inhibition (at 30 µM (top of the series)): 48% (inactive)
N#Cc1cccc(-c2ccc3c(c2)[C@@H]2[C@@H](CCN2Cc2ccc4c(c2)OCO4)[C@@H](CO)N3)c1 |  | activity change, negative = inhibition (at 35 µM (top of the series)): -4.09% (inactive)
O=C(c1cccc(F)c1)N1CC[C@@H]2[C@@H](CO)Nc3ccc(C#Cc4ccc(F)cc4)cc3[C@@H]21 | 38.1% (inactive) | 
O=C(C1CCCC1)N1C[C@@H]2N[C@H](C1)C2c1ccc(-c2cccc(F)c2)cc1 (some centres undefined) |  | activity change, negative = inhibition (at 60 µM (top of the series)): 46.7% (inactive)
Cc1ccc(-c2ccc([C@@H]3[C@@H](CO)N4CCCCN(C(=O)Nc5ccccc5)C[C@@H]34)cc2)cc1 | 27.7% (inactive) | 
COc1ccc(S(=O)(=O)N2CCCCN3[C@H](CO)[C@@H](c4ccc(C#CC(C)C)cc4)[C@H]3C2)cc1 | 39.3% (inactive) | 
OC[C@H]1[C@H](c2ccc(-c3ccccc3)cc2)[C@@H]2CN(CCC(F)(F)F)CCCCN12 |  | activity change, negative = inhibition (at 60 µM (top of the series)): 31.7% (inactive)
N#C[C@@H]1[C@@H](c2ccccc2-c2cccc(F)c2)[C@H](CO)N1C(=O)NC1CCCC1 | 10.6% (inactive) | 
C/C=C/c1ccc([C@H]2[C@@H](CO)N(C(=O)CC)[C@@H]2CNC(=O)CC)cc1 |  | activity change, negative = inhibition (at 135 µM (top of the series)): -8.82% (inactive)
CN(C)C(=O)c1cccc(-c2ccc(C3[C@H]4CNC[C@@H]3N4S(=O)(=O)c3ccc(Cl)cc3)cc2)c1 (some centres undefined) |  | activity change, negative = inhibition (at 135 µM (top of the series)): 10.5% (inactive)
O=C(c1ccc(F)cc1)N1CC[C@@H]2[C@H]1c1cc(C3=CCCCC3)ccc1N[C@@H]2CO |  | activity change, negative = inhibition (at 60 µM (top of the series)): 34.8% (inactive)
O=S(=O)(c1cccc(F)c1)N1CC[C@@H]2[C@@H](CO)Nc3ccc(-c4cccc(F)c4)cc3[C@@H]21 | 45.7% (inactive) | 
O=C(Nc1ccc(F)cc1)N1CCCCN2[C@H](CO)[C@@H](c3ccc(-c4ccccc4F)cc3)[C@@H]2C1 |  | activity change, negative = inhibition (at 60 µM (top of the series)): 53.6% (inactive)
CC(=O)N(C)C[C@H]1[C@@H](c2ccc(-c3ccccc3F)cc2)[C@@H](CO)N1C(C)=O | -10.3% (inactive) | 
COc1cccc(-c2ccc3c(c2)[C@@H]2[C@@H](CCN2Cc2ccccc2OC)[C@@H](CO)N3)c1 |  | activity change, negative = inhibition (at 30 µM (top of the series)): -7.43% (inactive)
COc1ccc(NC(=O)N2[C@@H]3CNC[C@H]2C3c2ccc(-c3ccc(F)cc3)cc2)cc1 (some centres undefined) |  | activity change, negative = inhibition (at 60 µM (top of the series)): 39.8% (inactive)
CCc1nc(N2[C@H](C#N)[C@@H](c3ccccc3-c3ccccc3F)[C@@H]2CO)sc1C | 57.6% (inactive) | 
O=C(Nc1cccc(F)c1)N1CC(=O)N2[C@H](C1)[C@H](c1ccc(-c3cccc(F)c3)cc1)[C@@H]2CO |  | activity change, negative = inhibition (at 135 µM (top of the series)): 37.9% (inactive)
COc1ccccc1S(=O)(=O)N1CC[C@@H]2[C@@H](CO)Nc3ccc(-c4ccc(F)cc4)cc3[C@@H]21 |  | activity change, negative = inhibition (at 135 µM (top of the series)): 47% (inactive)
N#C[C@H]1[C@@H](c2ccccc2-c2ccccc2)[C@H](CO)N1C(=O)Cc1ccccc1 | 32.6% (inactive) | 
C[C@H](CO)N1C[C@H](C)[C@@H](CN(C)S(=O)(=O)c2ccc(Cl)cc2)Oc2c(NS(=O)(=O)c3ccccc3)cccc2C1=O | -3.11% (inactive) | 
